We go through six molecules from patent US5707679A, “Metal propionates for use as animal feed supplements” (priority 1995, dated 1998).

Where two headings read alike, the source gives them in different places.

For series [1] the following is noted: cited from earlier work; for absorption of metal cations in the gastrointestinal tract (in words): in vivo; for biological availability vs inorganic salts (in words): polyvalent metal ions from metal-amino acid complexes.
For series [2] the following is noted: chickens; cited from earlier work.
For series [3] the following is noted: bovine, in vivo; cited from earlier work.
For series [4] the following is noted: in vivo; cited from earlier work.
Series [5] can be described thus: Performance of finishing cattle (Study 1: weight, gain, feed intake, gain/feed). The format is in vivo, Angus crossbred steers. Further details: Average daily gain: unit not given here. The settings on record: finishing steers; for Final weight / Initial weight: 25 ppm supplemental zinc; for Final weight: 140-day study; for Initial weight: baseline. From the text: Fifty-six Angus crossbred steers were used in this study. Steers were purchased from either a feeder calf sale […] a preconditioned sale. Steers were blocked by sale type and weight, and then randomly assigned to a feed regimen. […] All regimens provided 25 ppm of supplemental zinc. Steers were housed in pens containing seven steers each.
Supplemental protein was supplied from a combination of soybean meal and urea. Steer weights were obtained on two consecutive days at the beginning and the end of the 140-day study. Interim weights were taken at 28-day intervals. Feed intake was measured daily. Blood and rumen fluid samples were obtained from 10 steers per treatment approximately two hours post feeding on day 42 of the study. Samples were analyzed for plasma and rumen fluid soluble zinc concentrations. Data were analyzed statistically by least square analysis of variance.

The nature of series [6]: Comparative zinc bioavailability trial in day-old broilers (growth, feed conversion, bone ash, tibia ash zinc, plasma zinc). The settings on record: for Relative Biological Availability: Feed conversion (corr.): 3-21 days; for Relative Biological Availability: Body weight gain / Relative Biological Availability: Bone ash / Relative Biological Availability: Ending body weight: 21 days. On the procedure:
Each zinc treatment was replicated eight times and each pen contained ten male birds.
Basal feeds and zinc compound were mixed in a horizontal feed mixer providing the desired ingredient composition as shown in Table 2. The broilers were fed the rations for 21 days. Feed weights were taken during the trial. Body weights were measured at the beginning and at the end of the trial. On day 21, zinc levels in the blood and tibia ash were determined. The assay procedures for total tibia zinc content or concentration to assess zinc utilization are similar to those used by Wedekind et al., J. Anim. Sci., 70:178-187 (1992). The data were analyzed according to the SAS statistical package.
Chick growth parameters and zinc levels in the blood and tibia ash were used as criteria to determine the biological availability of zinc. […] The biological availability of zinc sulfate was arbitrarily set at 100%.

Series [7] in a line: Performance of growing cattle (Study 2: weight, gain, feed intake, gain/feed). The settings on record: for Average daily gain / Feed intake / Gain/feed / Final weight / Initial weight: growing steers; for Final weight / Initial weight: 25 ppm supplemental zinc; for Initial weight: baseline. In kind it is in vivo, Angus steers. From the text: Thirty-six Angus steers with an average body weight of 268 kg were stratified by weight and randomly assigned to feed regimens. […] Zinc was supplemented in all treatments to provide 25 ppm of supplemental zinc.
Steers were housed in pens of 12 steers and individually fed using electronic gates. Each pen contained an equal number of steers from each dietary regimen. Steers were fed a basal corn silage-based growing diet supplemented with protein, minerals and vitamins. Diets were offered ad libitum.
Body weights were obtained on two consecutive days at the initiation and termination of the 112-day study. Interim weights were taken at 28-day intervals. Blood and rumen fluid samples were obtained on day 42 of the study for determination of plasma and rumen fluid soluble zinc concentrations. Data were statistically analyzed by least square analysis of variance.

Setting [8] is: 0 to 28 days, propionate vs. sulfate P < 0.05, vs. methionine P < 0.10.
Setting [9] is: 55 to 112 days (so in the source).
The mark [10] stands for this setting: zinc sulfate arbitrarily set at 100%.
Where [11] appears, read: 0 to 28 days, propionate vs. methionine P < 0.05, vs. sulfate P < 0.10 (as footnoted).
[12] abbreviates: 29 to 56 days, propionate vs. methionine P < 0.05.
Where [13] appears, read: 29 to 56 days, propionate vs. sulfate P < 0.05, vs. methionine P < 0.10.
Setting [14] is: 57 to 84 days, propionate vs. sulfate P < 0.10.
Setting [15] is: Total (0 to 112 days), propionate vs. sulfate P < 0.05, vs. methionine P < 0.10.
Where [16] appears, read: day 21, zinc sulfate arbitrarily set at 100%.

For the molecule `O=C([O-])CC(O)(CC(=O)[O-])C(=O)[O-].O=C([O-])CC(O)(CC(=O)[O-])C(=O)[O-].[Zn+2].[Zn+2].[Zn+2]` [zinc citrate], the “absorption of metal cations in the gastrointestinal tract (in words)” value in series [1] is “variable results, enhancing absorption in one study and having no effect in others”.

Turning to `CC(=O)[O-].CC(=O)[O-].[Zn+2]` [zinc acetate, Zinc acetate], in series [2], the “toxicity (in words)” value was “toxic to chickens”.

On to `NCCCC[C@H](N)C(=O)O.[Zn]` [zinc-lysine], for which the “biological availability vs inorganic salts (in words)” value in series [1] was “more biologically available to the animal than are the same ions provided from inorganic salts”.

Consider zinc picolinate, for which the “absorption of zinc (in words)” value is “not in cattle” in series [3]; “enhance the absorption of zinc in humans and rats” in series [4]. Further, in series [1], the “absorption of metal cations in the gastrointestinal tract (in words)” value was “variable results, enhancing absorption in one study and having no effect in others”.

`O=S(=O)([O-])[O-].[Zn+2]` [Zinc sulfate]: the Average daily gain in series [5] (0 to 28 days) was determined as 1.26; in series [5] (29 to 56 days), 1.46; in series [5] (57 to 84 days), 1.52; in series [5] (85 to 112 days) it was 1.19; in series [5] (113 to 140 days), 1.24; in series [5] (Total (0 to 140 days)), 1.33. Further, the Average daily gain in series [7] (0 to 28 days) amounted to 1.34 kg; in series [7] (setting [12]), 1.10 kg; in series [7] (57 to 84 days) it was 0.72 kg; in series [7] (85 to 112 days), 1.36 kg; in series [7] (Total (0 to 112 days)) it was 1.13 kg. The Feed intake in series [5] (0 to 28 days) was 6.28 kg/day; in series [5] (29 to 56 days), 7.51 kg/day; in series [5] (57 to 84 days) it was 6.21 kg/day; in series [5] (85 to 112 days), 8.33 kg/day; in series [5] (113 to 140 days), 6.60 kg/day; in series [5] (Total (0 to 140 days)), 6.99 kg/day. Moreover, the Feed intake in series [7] (0 to 28 days) stood at 7.67 kg/day; in series [7] (29 to 56 days), 8.13 kg/day; in series [7] (setting [14]), 7.62 kg/day; in series [7] (85 to 112 days), 7.86 kg/day; in series [7] (Total (0 to 112 days)), 7.82 kg/day. For the same molecule, the Gain/feed is on record as 0.201 in series [5] (setting [8]); 0.195 in series [5] (29 to 56 days); 0.142 in series [5] (setting [9]); 0.244 in series [5] (57 to 84 days); 0.189 in series [5] (113 to 140 days); 0.191 in series [5] (Total (0 to 140 days)). The Gain/feed in series [7] (setting [11]) was found to be 0.178; in series [7] (setting [13]), 0.137; in series [7] (57 to 84 days), 0.095; in series [7] (85 to 112 days) it was 0.174; in series [7] (setting [15]) it was 0.145. In addition, the Final weight in series [5] is listed as 489.6 kg; in series [7] (112-day study), 391.8 kg. Besides, the Initial weight is 303.0 kg in series [5] and 265.5 kg in series [7]. Further, the “Relative Biological Availability: Feed conversion (corr.)” value in series [6] (setting [10]) turned out to be 100.00%. In series [6] (setting [10]), the “Relative Biological Availability: Body weight gain” value was determined as 100.00%. Moreover, the “Relative Biological Availability: Bone ash” value in series [6] (setting [10]) is given as 100.00%. Besides, the “Relative Biological Availability: Ending body weight” value in series [6] (setting [10]) came out at 100.00%. Besides, in series [6] (chicken, in vivo, 30240 min), the “Relative Biological Availability: Plasma Zinc” value was 100.00%. Moreover, the “Relative Biological Availability: Tibia ash zinc” value in series [6] (chicken, in vivo, 30240 min) is 100.00%.

Take `CSCC[C@H](N)C(=O)O.O=S(=O)([O-])O.O=S(=O)([O-])O.[Zn+2]` [Zinc methionine, Zinc methionine bisulfate]: the Average daily gain in series [5] (0 to 28 days) was found to be 1.32; in series [5] (29 to 56 days), 1.45; in series [5] (57 to 84 days), 1.57; in series [5] (85 to 112 days), 0.97; in series [5] (113 to 140 days) it was 1.22; in series [5] (Total (0 to 140 days)) it was 1.31. Besides, the Average daily gain in series [7] (0 to 28 days) is listed as 1.33 kg; in series [7] (setting [12]), 1.18 kg; in series [7] (57 to 84 days), 0.87 kg; in series [7] (85 to 112 days) it was 1.34 kg; in series [7] (Total (0 to 112 days)) it was 1.18 kg. Further, the Feed intake in series [5] (0 to 28 days) was 6.35 kg/day; in series [5] (29 to 56 days), 7.76 kg/day; in series [5] (57 to 84 days), 6.43 kg/day; in series [5] (85 to 112 days), 8.51 kg/day; in series [5] (113 to 140 days), 6.59 kg/day; in series [5] (Total (0 to 140 days)) it was 7.13 kg/day. The Feed intake is 8.11 kg/day in series [7] (0 to 28 days); 9.03 kg/day in series [7] (29 to 56 days); 8.62 kg/day in series [7] (setting [14]); 8.56 kg/day in series [7] (85 to 112 days); 8.58 kg/day in series [7] (Total (0 to 112 days)). Further, the Gain/feed is recorded as 0.208 in series [5] (setting [8]); 0.186 in series [5] (29 to 56 days); 0.115 in series [5] (setting [9]); 0.244 in series [5] (57 to 84 days); 0.184 in series [5] (113 to 140 days); 0.183 in series [5] (Total (0 to 140 days)). The Gain/feed in series [7] (setting [11]) is on record as 0.164; in series [7] (setting [13]), 0.132; in series [7] (57 to 84 days), 0.104; in series [7] (85 to 112 days) it was 0.158; in series [7] (setting [15]), 0.139. For the same molecule, the figures for the Final weight in series [5] and in series [7] (112-day study) were 487.6 kg and 399.6 kg, respectively. The Initial weight in series [5] turned out to be 304.7 kg; in series [7] it was 267.7 kg. Moreover, the “Relative Biological Availability: Feed conversion (corr.)” value in series [6] (setting [10]) is 90.38%. For the same molecule, in series [6] (setting [10]), the “Relative Biological Availability: Body weight gain” value came to 131.52%. In addition, the “Relative Biological Availability: Bone ash” value in series [6] (setting [10]) is on record as 113.95%. Besides, in series [6] (setting [10]), the “Relative Biological Availability: Ending body weight” value worked out at 132.46%. In addition, the “levels of zinc in the blood and tibia ash (in words)” value in series [6] (day 21) is “comparable levels of zinc in the blood and tibia ash”. Further, the “Relative Biological Availability: Plasma Zinc” value in series [6] (setting [16]) is reported as 124.00%. Also, the “Relative Biological Availability: Tibia ash zinc” value in series [6] (setting [16]) was found to be 123.99%. For the same molecule, the “gains, second 28-day period (in words)” value in series [7] (29 to 56 days, methionine vs propionate (P<0.05)) was “gains were greater (P<0.05) in steers fed zinc methionine compared with those fed zinc propionate”. In addition, the “Gains for the entire study (in words)” value in series [7] (112-day study) is reported as “tended to be higher for steers fed zinc methionine”. Further, the “feed consumption (in words)” value in series [7] (total study period, vs zinc sulfate (P<0.10)) is “consumed more (P<0.10) feed over the total study period than steers fed zinc sulfate”. In series [1], the “biological availability vs inorganic salts (in words)” value is given as “more biologically available to the animal than are the same ions provided from inorganic salts”.
